The supplement of paper PMC13380429
± gives the standard deviation of the averaged measurements.

Columns and labels:
Conditions in all cases: 72 h
[1] = tested on: U2OS; test: relative viability EC50 (midpoint between 100% and the lowest measured viability); higher = less toxic
[2] = tested on: Calu-3; test: as above
[3] = tested on: Caco-2; test: as above
[4] = tested on: HepG2; test: as above
[5] = tested on: Vero E6; test: as above
[6] = tested on: U2OS; test: cell viability relative to DMSO; higher = less toxic
[7] = tested on: Calu-3; test: as above
[8] = tested on: Caco-2; test: as above
[9] = tested on: HepG2; test: as above
[10] = tested on: Vero E6; test: as above
[11] = tested on: U2OS; test: drug sensitivity score (DSS) for viability; higher = more toxic; extreme values may be limits of the assay
[12] = tested on: Calu-3; test: as above
[13] = tested on: Caco-2; test: as above
[14] = tested on: HepG2; test: as above
[15] = tested on: Vero E6; test: as above

Structure (SMILES)	relative viability EC50 [1]	relative viability EC50 [2]	relative viability EC50 [3]	relative viability EC50 [4]	relative viability EC50 [5]	cell viability ([6]; 1 nM)	cell viability ([6]; 10 nM)	cell viability ([6]; 100 nM)	cell viability ([6]; 1000 nM)	cell viability ([6]; 10000 nM)	cell viability ([7]; 1 nM)	cell viability ([7]; 10 nM)	cell viability ([7]; 100 nM)	cell viability ([7]; 1000 nM)	cell viability ([7]; 10000 nM)	cell viability ([8]; 1 nM)	cell viability ([8]; 10 nM)	cell viability ([8]; 100 nM)	cell viability ([8]; 1000 nM)	cell viability ([8]; 10000 nM)	cell viability ([9]; 1 nM)	cell viability ([9]; 10 nM)	cell viability ([9]; 100 nM)	cell viability ([9]; 1000 nM)	cell viability ([9]; 10000 nM)	cell viability ([10]; 1 nM)	cell viability ([10]; 10 nM)	cell viability ([10]; 100 nM)	cell viability ([10]; 1000 nM)	cell viability ([10]; 10000 nM)	drug sensitivity score [11]	drug sensitivity score [12]	drug sensitivity score [13]	drug sensitivity score [14]	drug sensitivity score [15]
O=C(O)c1ccccc1C(=O)Nc1ccc(-c2ccccc2)cc1 [kartogenin]	> 10 µM	> 10 µM	> 10 µM	> 10 µM	> 10 µM	103%	104%	100%	98.6%	100%	98.2%	101%	105%	102%	103%	99.2%	90.6%	89.7%	94.2%	93.7%	98.4%	98.4%	92.7%	97.3%	106%	103%	99%	105%	97.7%	98.1%	0	0	0	0	0
CCC(C)CCCC(=O)N[C@@H](CCN)C(=O)N[C@H](C(=O)N[C@@H](CCN)C(=O)N[C@H]1CCNC(=O)[C@H]([C@@H](C)O)NC(=O)[C@H](CCN)NC(=O)[C@H](CCN)NC(=O)[C@H](CC(C)C)NC(=O)[C@@H](CC(C)C)NC(=O)[C@H](CCN)NC1=O)[C@@H](C)O (stereo not given in full) [colistin]	> 10 µM	> 10 µM	> 10 µM	> 10 µM	> 10 µM	99.7 ± 1.4%	100 ± 2%	97.8 ± 0.14%	102.75 ± 0.071%	99.2 ± 1.1%	100 ± 4%	93.4 ± 4.2%	94.3 ± 4.8%	98 ± 15%	85.4 ± 7.2%	94.7 ± 6.2%	98.4 ± 1.8%	101 ± 7.6%	104 ± 1.4%	101 ± 10%	94 ± 1.7%	105 ± 2%	99.3 ± 11%	103 ± 2%	97.5 ± 8.1%	101 ± 2.5%	101 ± 2.5%	104 ± 2.5%	98.5 ± 1.2%	103 ± 1.6%	0	0.95 ± 1.3	0	0	0
Nc1nc(F)nc2c1ncn2[C@@H]1O[C@H](COP(=O)(O)O)[C@@H](O)[C@@H]1O [fludarabine-phosphate]	> 10 µM	> 10 µM	> 10 µM	> 10 µM	> 10 µM	103%	105%	97.4%	99.7%	104%	97.1%	86.8%	98.3%	92.9%	89.2%	94.5%	106%	98.6%	96.9%	101%	90.9%	85.3%	94.7%	98.5%	77.7%	104%	105%	101%	101%	97.6%	0	0	0	0	0
O=C(Nc1cccnn1)N1CCC(=Cc2cccc(Oc3ccc(C(F)(F)F)cn3)c2)CC1	> 10 µM	> 10 µM	> 10 µM	2.33 µM	> 10 µM	94.3%	96.2%	96.3%	97.9%	91.2%	104%	95.3%	92%	95.3%	84.9%	100%	104%	102%	96.4%	81.4%	99.9%	97.5%	106%	93.3%	34.1%	96.1%	93.3%	93.2%	87.3%	96.1%	0	0.2	0.9	4.7	0
CC(C)(Oc1ccc(C(=O)c2ccc(Cl)cc2)cc1)C(=O)O [fenofibric-acid]	> 10 µM	> 10 µM	> 10 µM	> 10 µM	> 10 µM	103%	100%	97.5%	100%	95.5%	90.5%	94.5%	101%	102%	98.9%	92.4%	106%	91.9%	96.2%	105%	91.3%	96.6%	90.9%	94.9%	90.8%	102%	102%	101%	95.4%	97%	0	0	0	0	0
